Test system: Mtb BioA overexpression strain (BioA-OE)
Assay: microbe, parasite or virus in culture
Type: cell-based, Mycobacterium tuberculosis

| Compound | MIC (Mycobacterium tuberculosis, read-out: MIC that results in 90% inhibition, BioA-OE) | MIC50 BioA-OE (MIC that results in 50% inhibition, […]) |
| --- | --- | --- |
| CC(=O)c1ccc(N2CCN(C(=O)c3ccc4c(c3)OCO4)CC2)cc1 [Compound 6, 1-(4-(4-(Benzo[d][1,3]dioxole-5-carbonyl)piperazin-1-yl)phenyl)-ethanone] | > 50 µM |  |
| (3-Chlorophenyl)(4-(5-methoxypyridin-2-yl)piperazin-1-yl)-methanone [Compound 22] |  | >50 µM |

Reference: publication PMC5590679 (Journal of medicinal chemistry, 2017)
